Assay results taken from patent US4820713A, “Ketoalkanol esters of dihydrolysergic acid useful as 5HT receptor antagonists” (Eli Lilly and Company, priority 1988, dated 1989).
Structures can show the parent of a compound that is named as a salt.

How the values were obtained:
blood pressure = conditions: in humans; ketanserin; cited from earlier work
5HT2 receptors [1] = target: T1, 5HT2 receptors (Rattus norvegicus, UniProt P14842); assay: Apparent antagonist dissociation constant (-log KB) versus serotonin-induced contraction of isolated rat jugular vein; parameters: species or system male Wistar rats; conditions: antagonist incubated one hour, 37° C., maleate salt, read-out: 5HT2 -Log Kb ± S.E. (converted)
T1 construct: external jugular veins and thoracic aortas dissected free of connective tissue; from tissue; host or cells: external jugular vein of male Wistar rats
T1 sequence (P14842 whole entry): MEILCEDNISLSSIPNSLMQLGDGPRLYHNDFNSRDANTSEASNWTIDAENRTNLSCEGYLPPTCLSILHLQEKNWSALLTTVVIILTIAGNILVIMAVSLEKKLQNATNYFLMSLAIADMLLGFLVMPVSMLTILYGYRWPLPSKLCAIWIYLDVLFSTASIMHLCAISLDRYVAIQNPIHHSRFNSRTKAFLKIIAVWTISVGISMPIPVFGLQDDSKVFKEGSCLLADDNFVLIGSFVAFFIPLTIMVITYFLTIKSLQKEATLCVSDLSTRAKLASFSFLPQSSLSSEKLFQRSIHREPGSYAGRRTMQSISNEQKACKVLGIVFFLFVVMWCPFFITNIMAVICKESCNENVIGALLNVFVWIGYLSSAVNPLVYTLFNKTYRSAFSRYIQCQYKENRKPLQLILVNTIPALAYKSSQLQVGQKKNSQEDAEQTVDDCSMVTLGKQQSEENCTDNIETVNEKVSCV
Description: An initial optimum resting force of 1 and 4 g was applied to the jugular vein and aorta, respectively. […] Exp. Ther., 205, 400 (1978). Alpha receptor antagonist activity was evaluated in the aorta.

5HT2 receptors [2] = conditions: cited from earlier work
[3] = tested on: vascular alpha adrenergic receptors; conditions: in words; Cohen I; cited from earlier work
dopaminergic receptors = conditions: in words; Cohen I; cited from earlier work
histaminergic receptors = conditions: in words; Cohen I; cited from earlier work
5HT2 receptors [4] = conditions: in words; cited from earlier work

O=C(c1ccc(F)cc1)C1CCN(CCn2c(=O)[nH]c3ccccc3c2=O)CC1 [ketanserin]
lower blood pressure (blood pressure): lower blood pressure in humans

CC(=O)[C@@H](C)OC(=O)[C@@H]1C[C@@H]2c3cccc4c3c(cn4C(C)C)C[C@H]2N(C)C1 [RCH(CH3)COCH3, R-1-methyl-2-oxopropyl 1-isopropyl-9,10-dihydrolysergate maleate]
Kb (5HT2 receptors [1]): 0.355 nM

CC(=O)[C@H](C)OC(=O)[C@@H]1C[C@@H]2c3cccc4c3c(cn4C(C)C)C[C@H]2N(C)C1 [SCH(CH3)COCH3, S-1-methyl-2-oxopropyl 1-isopropyl-9,10-dihydrolysergate]
Kb (5HT2 receptors [1]): 0.269 nM

CC(O)C(C)OC(=O)[C@@H]1C[C@@H]2c3cccc4c3c(cn4C(C)C)C[C@H]2N(C)C1 (stereo partly drawn) [LY53857, 1-isopropyl-6-methyl-8β-(1-methyl-2-hydroxy)propoxycarbonyl-5R-ergoline]
Kd (5HT2 receptors [2]; Cohen et al. J.P.E.T., 227, 327 (1983), read-out: Kdissoc. (5HT2 receptors)): ~0.1 nM
antagonism of vascular contraction to serotonin (5HT2 receptors [2]; effect mediated by 5HT2 receptors, Cohen I): potent antagonist of vascular contraction to serotonin
affinity for vascular alpha adrenergic receptors [3]: minimal affinity
affinity for dopaminergic receptors (dopaminergic receptors): minimal affinity
affinity for histaminergic receptors (histaminergic receptors): minimal affinity
peripheral serotonin antagonist activity, ranking among Garbrecht compounds (5HT2 receptors [4]): most active peripheral serotonin antagonist
